The supplement of paper PMC12137928
Structures can show the parent of a compound that is named as a salt.

System: HCT116
Conditions: 72 h
Procedure, shortened: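 HCT116 cells were seeded at 250 per well in 1536-well plates and left 5 h to attach. CellTiter-Glo luminescence was scaled to vehicle (0%) and positive control (-100%), then pattern-corrected. IC50 and maximal efficacy came from four-parameter Hill fits.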

IC50 cell viability (ICRF193 0 nM) [µM] | IC50 cell viability (ICRF193 200 nM) [µM] | SMILES
> 45.8 | > 45.8 | CN(C)c1nc(N(C)C)nc(N(C)C)n1 [Altretamine]
> 45.8 | > 45.8 | CCN(CCCc1ccccc1)CCCc1ccccc1 [Alverine citrate]
> 45.8 | > 45.8 | C[C@H]1CN(C[C@H](Cc2ccccc2)C(=O)NCC(=O)O)CC[C@@]1(C)c1cccc(O)c1 [Alvimopan]
> 45.8 | > 45.8 | NC12CC3CC(CC(C3)C1)C2 [Amantadine hydrochloride]
> 45.8 | > 45.8 | CC[N+](CC)(CCNC(=O)C(=O)NCC[N+](CC)(CC)Cc1ccccc1Cl)Cc1ccccc1Cl [Ambenonium chloride]
> 45.8 | > 45.8 | COC(c1ccccc1)(c1ccccc1)[C@H](Oc1nc(C)cc(C)n1)C(=O)O [Ambrisentan]
> 45.8 | > 45.8 | Nc1c(Br)cc(Br)cc1CN[C@H]1CC[C@H](O)CC1 [Ambroxol hydrochloride]
> 45.8 | > 45.8 | CC1(C)S[C@@H]2[C@H](/N=C/N3CCCCCC3)C(=O)N2[C@H]1C(=O)O [Amdinocillin]
> 45.8 | > 45.8 | CCC(=O)O[C@]1(C(=O)COC)[C@@H](C)C[C@H]2[C@@H]3CCC4=CC(=O)C=C[C@]4(C)[C@@]3(F)[C@@H](O)C[C@@]21C [Amelometasone]
> 45.8 | > 45.8 | COc1cc(N)cn[n+]1-c1ccccc1 [Amezinium methylsulfate]
> 45.8 | > 45.8 | Nc1c(CC(=O)O)cccc1C(=O)c1ccccc1 [Amfenac Sodium]
> 45.8 | > 45.8 | COC(=O)c1cc(Cl)ccc1NS(=O)(=O)C(F)(F)F [Amidoflumet]
> 45.8 | > 45.8 | NCC[C@H](O)C(=O)N[C@@H]1C[C@H](N)[C@@H](O[C@H]2O[C@H](CN)[C@@H](O)[C@H](O)[C@H]2O)[C@H](O)[C@H]1O[C@H]1O[C@H](CO)[C@@H](O)[C@H](N)[C@H]1O [Amikacin]
> 45.8 | > 45.8 | N=C(N)NC(=O)c1nc(Cl)c(N)nc1N [Amiloride]
> 45.8 | > 45.8 | COc1ccc(/C=C/C(=O)OCCC(C)C)cc1 [Amiloxate]
> 45.8 | > 45.8 | NCCCCCC(=O)O [Aminocaproic acid]
> 45.8 | > 45.8 | Nc1ccc(C(=O)NCC(=O)O)cc1 [Aminohippuric acid]
> 45.8 | > 45.8 | NCC(=O)CCC(=O)O [Aminolevulinic acid hydrochloride]
> 45.8 | > 45.8 | CCN1CCCC1CNC(=O)c1cc(S(=O)(=O)CC)c(N)cc1OC (configuration not stated) [Amisulpride]
> 45.8 | > 45.8 | CC(C)c1ccc2oc3nc(N)c(C(=O)O)cc3c(=O)c2c1 [Amlexanox]
> 45.8 | > 45.8 | CC1(C)[C@@H](O[C@H]2O[C@H](C(=O)O)[C@@H](O)[C@H](O)[C@H]2O[C@@H]2O[C@H](C(=O)O)[C@@H](O)[C@H](O)[C@H]2O)CC[C@]2(C)[C@H]3C(=O)C=C4[C@@H]5C[C@@](C)(C(=O)O)CC[C@]5(C)CC[C@@]4(C)[C@]3(C)CC[C@@H]12 [Ammonium Glycyrrhizinate]
> 45.8 | > 45.8 | CCC(C)(C)OC(=O)N[C@@H](Cc1c[nH]c2ccccc12)C(=O)N[C@@H](CCSC)C(=O)N[C@@H](CC(=O)O)C(=O)N[C@@H](Cc1ccccc1)C(N)=O [Amogastrin]
> 45.8 | > 45.8 | CCC(C)(C)c1ccc(CC(C)CN2C[C@@H](C)O[C@@H](C)C2)cc1 (some centres not stated) [Amorolfine hydrochloride]
> 45.8 | > 45.8 | Clc1ccc2c(c1)C(N1CCNCC1)=Nc1ccccc1O2 [Amoxapine]
> 45.8 | > 45.8 | CC1(C)S[C@@H]2[C@H](NC(=O)[C@H](N)c3ccc(O)cc3)C(=O)N2[C@H]1C(=O)O [Amoxicillin sodium]
> 45.8 | > 45.8 | C[C@@H]1[C@H](O)[C@@H](C)/C=C/C=C/C=C/C=C/C=C/C=C/C=C/[C@H](O[C@@H]2O[C@H](C)[C@@H](O)[C@H](N)[C@@H]2O)C[C@@H]2O[C@](O)(C[C@@H](O)C[C@@H](O)[C@H](O)CC[C@@H](O)C[C@@H](O)CC(=O)O[C@H]1C)C[C@H](O)[C@H]2C(=O)O [Amphotericin B]

IC50 cell viability (ICRF193 0 nM) [µM] | IC50 cell viability (ICRF193 200 nM) [µM] | SMILES
> 45.8 | > 45.8 | CCOC(=O)OC(C)OC1=C(C(=O)Nc2ccccn2)N(C)S(=O)(=O)c2ccccc21 (configuration not stated) [Ampiroxicam]
> 45.8 | > 45.8 | CC(C)CN(C[C@@H](O)[C@H](Cc1ccccc1)NC(=O)O[C@H]1CCOC1)S(=O)(=O)c1ccc(N)cc1 [Amprenavir]
> 45.8 | > 45.8 | CCCc1ncc(C[n+]2ccccc2C)c(N)n1 [Amprolium hydrochloride]
> 45.8 | > 45.8 | Nc1cc(-c2ccncc2)c[nH]c1=O [Amrinone]
> 45.8 | > 45.8 | CCCCCc1ccc(C)cc1O [Amylmetacresol]
> 45.8 | > 45.8 | C[N+]1(CC2COC(c3ccccc3)(c3ccccc3)O2)CCCCC1 (configuration not stated) [Anacolin]
> 45.8 | > 45.8 | O=C1CN2Cc3c(ccc(Cl)c3Cl)N=C2N1 [Anagrelide hydrochloride]
> 45.8 | > 45.8 | CC(C)(C#N)c1cc(Cn2cncn2)cc(C(C)(C)C#N)c1 [Anastrozole]
> 45.8 | > 45.8 | C[C@]12CCC(=O)C[C@@H]1CC[C@@H]1[C@@H]2CC[C@]2(C)C=CC[C@@H]12 [Androstenone]
> 45.8 | > 45.8 | COc1ccc(-c2cc(=S)ss2)cc1 [Anethole trithione]
> 45.8 | > 45.8 | C/C=C/c1ccc(OC)cc1 [Anethole]
> 45.8 | > 45.8 | CCCCCOc1ccc(-c2ccc(-c3ccc(C(=O)N[C@H]4C[C@@H](O)[C@@H](O)NC(=O)[C@@H]5[C@@H](O)[C@@H](C)CN5C(=O)[C@H]([C@@H](C)O)NC(=O)[C@H]([C@H](O)[C@@H](O)c5ccc(O)cc5)NC(=O)[C@@H]5C[C@@H](O)CN5C(=O)[C@H]([C@@H](C)O)NC4=O)cc3)cc2)cc1 [Anidulafungin]
> 45.8 | > 45.8 | COc1ccc(C2C(=O)c3ccccc3C2=O)cc1 [Anisindione]
> 45.8 | > 45.8 | CCCC(CCC)C(=O)O[C@H]1C[C@H]2CC[C@@H](C1)[N+]2(C)C [Anisotropine methylbromide]
> 45.8 | > 45.8 | c1ccc(CN(CC2=NCCN2)c2ccccc2)cc1 [Antazoline hydrochloride]
> 45.8 | > 45.8 | O=C1c2c(O)cccc2Cc2cccc(O)c21 [Anthralin]
> 45.8 | > 45.8 | COc1ccc(-n2nc(C(N)=O)c3c2C(=O)N(c2ccc(N4CCCCC4=O)cc2)CC3)cc1 [Apixaban]
> 45.8 | > 45.8 | NNc1nncc2ccccc12 [Apresoline]
> 45.8 | > 45.8 | CCN(CC)CCCN(c1ccccc1)C1Cc2ccccc2C1 [Aprindine hydrochloride]
> 45.8 | > 45.8 | OC[C@H]1O[C@@H](Oc2ccc(O)cc2)[C@H](O)[C@@H](O)[C@@H]1O [Arbutin]
> 45.8 | > 45.8 | CC1CNc2c(cccc2S(=O)(=O)N[C@@H](CCCNC(=N)N)C(=O)N2CC[C@@H](C)C[C@@H]2C(=O)O)C1 (some centres not stated) [Argatroban]
> 45.8 | > 45.8 | CC(C)(C)NCC(O)CSc1nc(-c2ccc(C(N)=O)s2)cs1 (configuration not stated) [Arotinolol hydrochloride]
> 45.8 | > 45.8 | CO[C@H]1O[C@@H]2O[C@@]3(C)CC[C@H]4[C@H](C)CC[C@@H]([C@H]1C)[C@@]24OO3 [Artemether]
> 45.8 | > 45.8 | CCCNC(C)C(=O)Nc1c(C)csc1C(=O)OC (configuration not stated) [Articaine hydrochloride]
> 45.8 | > 45.8 | CN1CC2c3ccccc3Oc3ccc(Cl)cc3C2C1 (configuration not stated) [Asenapine]
> 45.8 | > 45.8 | CC(=O)Oc1ccccc1C(=O)O [Aspirin]

SMILES | IC50 cell viability (ICRF193 0 nM) [µM] | IC50 cell viability (ICRF193 200 nM) [µM]
C=CC[C@]1(O)CC[C@H]2[C@@H]3CCC4=CC(=O)CCC4=C3C=C[C@@]21C [Altrenogest] | > 45.8 | > 45.8
NCCCNCCSP(=O)(O)O [Amifostine] | > 45.8 | > 45.8
CCC1(c2ccc(N)cc2)CCC(=O)NC1=O (configuration not stated) [Aminoglutethimide] | > 45.8 | > 45.8
CC(CC(C(N)=O)(c1ccccc1)c1ccccc1)N(C)C (configuration not stated) [Aminopentamide sulfate] | > 45.8 | > 45.8
Cc1ccc(/N=C/N(C)/C=N/c2ccc(C)cc2C)c(C)c1 [Amitraz] | > 45.8 | > 45.8
CCOC(=O)C1(c2ccccc2)CCN(CCc2ccc(N)cc2)CC1 [Anileridine] | > 45.8 | > 45.8
COc1ccc(C(=O)N2CCCC2=O)cc1 [Aniracetam] | > 45.8 | > 45.8
O=C1c2ccccc2C(=O)c2ccccc21 [Anthraquinone] | > 45.8 | > 45.8
Cc1nnc2n1-c1sc(CCC(=O)N3CCOCC3)cc1C(c1ccccc1Cl)=NC2 [Apafant] | > 45.8 | > 45.8
